# Source: PMC8899470 (Frontiers in Pharmacology, 2022)
# Several values for one entry are separate records, joined by “and”; a condition that tells them apart may be missing. Identical values can stand only once.
# Experiments:
# PLpro of MERS-CoV = settings: ref Cho et al., 2013; cited from earlier work
# PLpro of SARS-CoV = settings: ref Cho et al., 2013; cited from earlier work
# Vero E6 cells = settings: cited from earlier work
# SARS-CoV = settings: Vero E6 cells; ref Lin et al., 2018; cited from earlier work
# SARS CoV-2 PLpro = SARS CoV-2 PLpro (Severe acute respiratory syndrome coronavirus 2, UniProt P0DTD1); assay: biochemical; assay type: biochemical; settings: for IC50: IC50, PLpro 0.3 µM, LKGGAMC substrate 40 µM, Tris-HCl pH 7.3, triplicate
compound,measurement,setting,value
CCN(CC)C(=S)SSC(=S)N(CC)CC [Disulfiram],Inhibitory effect on PLpro (mode),PLpro of MERS-CoV,competitive inhibitory effect
same,Inhibitory effect on PLpro (mode),PLpro of SARS-CoV,competitive inhibitory effect
Cc1ccc(N)cc1C(=O)N[C@H](C)c1cccc2ccccc12 [GRL0617],Cytotoxicity,Vero E6 cells,no cytotoxicity
same,Inhibition of SARS-CoV replication,SARS-CoV,inhibit the replication process
Cc1ccc(NC2CCNCC2)cc1C(=O)N[C@H](C)c1cccc2[nH]c3ccccc3c12 [hit 1],IC50,SARS CoV-2 PLpro,2.4 ± 0.6 µM
CCOC(=O)c1ccc(-c2cccc([C@@H](C)NC(=O)c3cc(NC4CNC4)ccc3C)c2)s1 [hit 2],IC50,SARS CoV-2 PLpro,< 1 µM and 0.6 µM
same,Inhibitory activity relative to positive control GRL0617,SARS CoV-2 PLpro; ratio of IC50 values against PLpro,about 4 times
Cc1ccc(NC2COC2)cc1C(=O)N[C@H](C)c1csc2ccccc12 [hit 3],IC50,SARS CoV-2 PLpro,2.1 ± 0.5 µM
Cc1ccc(NC2CCN(C(F)(F)F)CC2)cc1C(=O)N[C@H](C)c1cccc2ccccc12 [hit 4],IC50,SARS CoV-2 PLpro,< 1 µM and 0.8 µM
